Laboratory results taken from the supplement of paper PMC10307832.

How the values were obtained:
Test in all cases: relative viability (nuclei count vs DMSO), 5 days (fraction); higher = more cells survive
Bexarotene + Phenformin = compound: C=C(c1ccc(C(=O)O)cc1)c1cc2c(cc1C)C(C)(C)CCC2(C)C [Bexarotene] + N=C(N)NC(=N)NCCc1ccccc1 [Phenformin] (partner 250 µM)
How it was run: (§1)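 Relative viability equals treated-well nuclei counts divided by vehicle-well nuclei counts. Counts came from 4× images of lung cancer cell lines grown in 1536-well plates for 5 days after pin-tool dosing on the day after seeding. Dosing used one drug alone or a fixed anchor-drug dose plus five library-drug doses (not always all listed) in √10 steps, and values are medians of duplicate plates.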

Bexarotene + Palbociclib = compound: C=C(c1ccc(C(=O)O)cc1)c1cc2c(cc1C)C(C)(C)CCC2(C)C [Bexarotene] + CC(=O)c1c(C)c2cnc(Nc3ccc(N4CCNCC4)cn3)nc2n(C2CCCC2)c1=O [Palbociclib] (partner 0.5 µM)
How it was run: as §1

Bexarotene + Pictilisib = compound: C=C(c1ccc(C(=O)O)cc1)c1cc2c(cc1C)C(C)(C)CCC2(C)C [Bexarotene] + CS(=O)(=O)N1CCN(Cc2cc3nc(-c4cccc5[nH]ncc45)nc(N4CCOCC4)c3s2)CC1 [Pictilisib] (partner 1 µM)
How it was run: as §1

Bexarotene + Decitabine = compound: C=C(c1ccc(C(=O)O)cc1)c1cc2c(cc1C)C(C)(C)CCC2(C)C [Bexarotene] + Nc1ncn([C@H]2C[C@H](O)[C@@H](CO)O2)c(=O)n1 [Decitabine] (partner 2 µM)
How it was run: as §1

Row | Cell Line | relative viability (Bexarotene + Phenformin; first compound 0.08 µM) | relative viability (Bexarotene + Phenformin; first compound 0.253 µM) | relative viability (Bexarotene + Phenformin; first compound 0.8 µM) | relative viability (Bexarotene + Phenformin; first compound 2.53 µM) | relative viability (Bexarotene + Phenformin; first compound 8 µM) | relative viability (Bexarotene + Palbociclib; first compound 0.08 µM) | relative viability (Bexarotene + Palbociclib; first compound 0.253 µM) | relative viability (Bexarotene + Palbociclib; first compound 0.8 µM) | relative viability (Bexarotene + Palbociclib; first compound 2.53 µM) | relative viability (Bexarotene + Palbociclib; first compound 8 µM) | relative viability (Bexarotene + Pictilisib; first compound 0.08 µM) | relative viability (Bexarotene + Pictilisib; first compound 0.253 µM) | relative viability (Bexarotene + Pictilisib; first compound 0.8 µM) | relative viability (Bexarotene + Pictilisib; first compound 2.53 µM) | relative viability (Bexarotene + Pictilisib; first compound 8 µM) | relative viability (Bexarotene + Decitabine; first compound 0.08 µM) | relative viability (Bexarotene + Decitabine; first compound 0.253 µM) | relative viability (Bexarotene + Decitabine; first compound 0.8 µM) | relative viability (Bexarotene + Decitabine; first compound 2.53 µM) | relative viability (Bexarotene + Decitabine; first compound 8 µM)
1 | NCI-H2087 | 0.527 | 0.475 | 0.451 | 0.433 | 0.435 | 0.254 | 0.238 | 0.198 | 0.274 | 0.226 | 1.03 | 0.941 | 0.91 | 0.786 | 0.818 | 0.303 | 0.277 | 0.242 | 0.227 | 0.215
2 | NCI-H2228 | 0.31 | 0.372 | 0.276 | 0.264 | 0.3 | 0.968 | 0.603 | 0.707 | 0.702 | 0.699 | 0.476 | 0.572 | 0.358 | 0.454 | 0.336 |  |  |  |  | 
3 | NCI-H727 | 0.51 | 0.481 | 0.574 | 0.515 | 0.503 | 0.683 | 0.578 | 0.595 | 0.696 | 0.711 | 0.463 | 0.36 | 0.348 | 0.346 | 0.355 | 1.02 | 0.748 | 0.826 | 0.847 | 0.885
4 | NCI-H650 | 0.486 | 0.518 | 0.472 | 0.39 | 0.439 | 0.306 | 0.286 | 0.294 | 0.311 | 0.339 | 0.946 | 0.939 | 0.851 | 0.753 | 0.858 | 0.284 | 0.263 | 0.328 | 0.301 | 0.309
5 | NCI-H520 | 0.643 | 0.485 | 0.514 | 0.445 | 0.417 | 0.271 | 0.182 | 0.198 | 0.229 | 0.207 | 0.324 | 0.244 | 0.293 | 0.286 | 0.235 | 0.499 | 0.473 | 0.552 | 0.52 | 0.51
6 | EBC-1 |  |  |  |  |  |  |  |  |  |  | 0.395 | 0.481 | 0.476 | 0.474 | 0.475 |  |  |  |  | 
7 | NCI-H661 | 0.314 | 0.296 | 0.261 | 0.283 | 0.272 | 0.407 | 0.422 | 0.447 | 0.401 | 0.405 | 0.438 | 0.362 | 0.397 | 0.362 | 0.35 | 0.606 | 0.542 | 0.559 | 0.509 | 0.496
8 | NCI-H1299 |  |  |  |  |  |  |  |  |  |  | 0.954 | 0.893 | 0.661 | 0.733 | 0.596 |  |  |  |  | 
9 | LK-2 | 1.15 | 0.506 | 0.381 |  | 0.47 | 0.656 | 0.825 | 0.702 | 0.695 | 0.669 | 0.933 | 0.711 | 0.824 | 0.659 | 0.785 | 0.387 | 0.308 | 0.321 | 0.35 | 0.279
10 | NCI-H1993 | 0.527 | 0.553 | 0.572 | 0.576 | 0.557 | 0.654 | 0.668 | 0.597 | 0.693 | 0.733 | 0.803 | 0.846 | 0.899 | 0.866 | 0.836 | 0.537 | 0.484 | 0.554 | 0.576 | 0.608
11 | NCI-H838 | 0.585 | 0.595 | 0.504 | 0.608 | 0.634 | 0.23 | 0.209 | 0.176 | 0.216 | 0.245 | 0.557 | 0.5 | 0.51 | 0.638 | 0.578 | 0.521 | 0.423 | 0.499 | 0.515 | 0.445
12 | NCI-H1437 | 0.307 | 0.327 | 0.301 | 0.392 | 0.32 | 0.317 | 0.306 | 0.294 | 0.291 | 0.286 | 0.572 | 0.447 | 0.56 | 0.601 | 0.542 | 0.592 | 0.581 | 0.556 | 0.564 | 0.51
13 | NCI-H2170 | 0.457 | 0.403 | 0.388 | 0.357 | 0.361 | 0.343 | 0.403 | 0.324 | 0.325 | 0.331 | 0.352 | 0.307 | 0.302 | 0.271 | 0.268 | 0.438 | 0.463 | 0.446 | 0.417 | 0.465
14 | SW 900 | 0.643 | 0.64 | 0.598 | 0.46 | 0.572 | 0.553 | 0.41 | 0.52 | 0.423 | 0.411 |  |  |  |  |  | 0.463 | 0.397 | 0.498 | 0.448 | 0.462
15 | NCI-H522 | 0.612 | 0.521 | 0.591 | 0.518 | 0.626 | 1.04 | 0.887 | 1.07 | 1.14 | 1.04 |  |  |  |  |  | 0.642 | 0.666 | 0.653 | 0.673 | 0.609
16 | NCI-H596 | 0.811 | 0.743 | 0.747 | 0.828 | 0.776 |  |  |  |  |  | 0.397 | 0.441 | 0.299 | 0.363 | 0.426 | 1.11 | 0.966 | 0.974 | 1.09 | 1.02
17 | IA-LM |  |  |  |  |  |  |  |  |  |  | 0.335 | 0.314 | 0.476 | 0.313 | 0.319 |  |  |  |  | 
18 | NCI-H1563 | 0.682 | 0.665 | 0.669 | 0.674 | 0.619 |  |  |  |  |  | 0.736 | 0.647 | 0.685 | 0.696 | 0.661 |  |  |  |  | 
19 | NCI-H2342 | 0.62 | 0.544 | 0.605 | 0.647 | 0.72 | 0.522 | 0.556 | 0.525 | 0.54 | 0.608 |  |  |  |  |  | 0.815 | 0.736 | 0.76 | 0.807 | 0.728
20 | CAL-12T | 0.578 | 0.511 | 0.572 | 0.513 | 0.519 | 0.442 | 0.465 | 0.342 | 0.417 | 0.441 | 0.333 |  | 0.396 |  | 0.361 |  |  |  |  | 
